Laboratory results: the kinase profiling compilation of Christmann-Franck et al. (2016)
Several values for one entry are separate records, joined by “and”; a condition that tells them apart may be missing. Equal entries are not always repeated.

Legend:
Experiment in all cases: Caliper, Mobility shift assay off-chip
[1] = molecular target: CDK2 (human) (UniProt P24941)
[2] = molecular target: CAMK2D (human) (UniProt Q13557)
[3] = molecular target: MAPK11 (human) (UniProt Q15759)
[4] = molecular target: AKT1 (human) (UniProt P31749)
[5] = test system: ABL1 (human), P00519 [Q252H]
[6] = molecular target: EGFR (human) (UniProt P00533)
[7] = molecular target: CAMK2G (human) (UniProt Q13555)
[8] = test system: FLT3 (human), P36888 [D835Y]
[9] = molecular target: SGK2 (human) (UniProt Q9HBY8)
[10] = molecular target: RPS6KA2 KD1 KD2 (human) (UniProt Q15349)
[11] = molecular target: TSSK1B (human) (UniProt Q9BXA7)
[12] = molecular target: BTK (human) (UniProt Q06187)
[13] = molecular target: PRKCG (human) (UniProt P05129)
[14] = molecular target: FGFR4 (human) (UniProt P22455)
[15] = molecular target: PRKG1 (human) (UniProt Q13976)
[16] = molecular target: AURKB (human) (UniProt Q96GD4)
[17] = molecular target: FYN (human) (UniProt P06241)
[18] = molecular target: AURKC (human) (UniProt Q9UQB9)
[19] = molecular target: AURKA (human) (UniProt O14965)
[20] = molecular target: CAMK4 (human) (UniProt Q16566)
[21] = molecular target: PDGFRA (human) (UniProt P16234)
[22] = molecular target: RPS6KA5 KD1 KD2 (human) (UniProt O75582)
[23] = molecular target: PRKCE (human) (UniProt Q02156)
[24] = molecular target: MAPKAPK2 (human) (UniProt P49137)
[25] = molecular target: PRKCH (human) (UniProt P24723)
[26] = molecular target: TSSK2 (human) (UniProt Q96PF2)
[27] = molecular target: PRKD3 (human) (UniProt O94806)
[28] = molecular target: FER (human) (UniProt P16591)
[29] = molecular target: LYN (human) (UniProt P07948)
[30] = molecular target: PRKCB2 (human) (UniProt P05771)
[31] = molecular target: MAPK13 (human) (UniProt O15264)
[32] = molecular target: FGFR2 (human) (UniProt P21802)
[33] = molecular target: RPS6KA3 KD1 KD2 (human) (UniProt P51812)
[34] = molecular target: STK3 (human) (UniProt Q13188)

Chain of AURKC (human) (Q9UQB9 whole entry, looked up): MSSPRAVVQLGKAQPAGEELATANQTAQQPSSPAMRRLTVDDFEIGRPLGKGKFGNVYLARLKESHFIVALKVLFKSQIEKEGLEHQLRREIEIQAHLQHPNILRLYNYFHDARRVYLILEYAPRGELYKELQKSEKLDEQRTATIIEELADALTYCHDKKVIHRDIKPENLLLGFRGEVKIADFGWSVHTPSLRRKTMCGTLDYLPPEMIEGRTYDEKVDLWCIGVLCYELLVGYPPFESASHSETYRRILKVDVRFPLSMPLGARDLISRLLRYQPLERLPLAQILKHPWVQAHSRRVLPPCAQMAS
Chain of PRKCH (human) (P24723 whole entry, looked up): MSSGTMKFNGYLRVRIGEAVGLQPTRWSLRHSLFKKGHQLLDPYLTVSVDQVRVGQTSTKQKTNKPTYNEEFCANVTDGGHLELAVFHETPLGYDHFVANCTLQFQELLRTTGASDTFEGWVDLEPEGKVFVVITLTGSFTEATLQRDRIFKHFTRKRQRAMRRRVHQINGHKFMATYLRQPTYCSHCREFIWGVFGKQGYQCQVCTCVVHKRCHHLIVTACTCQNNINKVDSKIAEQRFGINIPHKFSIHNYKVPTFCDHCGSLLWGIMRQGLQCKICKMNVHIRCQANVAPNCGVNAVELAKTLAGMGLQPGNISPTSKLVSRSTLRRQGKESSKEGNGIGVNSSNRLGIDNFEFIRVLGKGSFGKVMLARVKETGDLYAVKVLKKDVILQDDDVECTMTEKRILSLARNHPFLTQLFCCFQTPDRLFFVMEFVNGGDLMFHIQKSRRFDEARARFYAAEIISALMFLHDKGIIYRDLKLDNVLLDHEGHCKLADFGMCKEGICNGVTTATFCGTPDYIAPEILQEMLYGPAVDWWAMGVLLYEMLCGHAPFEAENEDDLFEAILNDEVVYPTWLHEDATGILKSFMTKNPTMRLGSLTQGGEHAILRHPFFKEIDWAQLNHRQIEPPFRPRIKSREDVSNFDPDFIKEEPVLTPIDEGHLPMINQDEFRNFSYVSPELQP
Chain of PRKG1 (human) (Q13976 whole entry, looked up): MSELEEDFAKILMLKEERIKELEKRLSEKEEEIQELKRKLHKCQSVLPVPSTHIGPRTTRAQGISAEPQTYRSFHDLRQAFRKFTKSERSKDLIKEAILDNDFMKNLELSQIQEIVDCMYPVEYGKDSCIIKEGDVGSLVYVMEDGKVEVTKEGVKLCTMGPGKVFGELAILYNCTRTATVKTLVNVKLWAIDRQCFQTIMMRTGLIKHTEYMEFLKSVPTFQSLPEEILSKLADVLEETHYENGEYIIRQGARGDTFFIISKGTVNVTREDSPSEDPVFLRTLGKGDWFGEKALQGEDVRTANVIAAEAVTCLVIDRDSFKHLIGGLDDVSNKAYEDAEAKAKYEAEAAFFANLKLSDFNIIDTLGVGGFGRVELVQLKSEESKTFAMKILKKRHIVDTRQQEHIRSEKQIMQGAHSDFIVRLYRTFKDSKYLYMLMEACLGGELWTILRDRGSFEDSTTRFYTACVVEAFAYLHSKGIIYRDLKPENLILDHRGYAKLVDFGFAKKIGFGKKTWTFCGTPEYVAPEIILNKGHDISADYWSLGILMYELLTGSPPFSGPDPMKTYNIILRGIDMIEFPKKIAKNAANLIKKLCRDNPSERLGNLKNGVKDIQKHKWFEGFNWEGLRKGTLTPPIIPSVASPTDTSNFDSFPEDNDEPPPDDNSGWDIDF
Chain of RPS6KA5 KD1 KD2 (human) (O75582 whole entry, looked up): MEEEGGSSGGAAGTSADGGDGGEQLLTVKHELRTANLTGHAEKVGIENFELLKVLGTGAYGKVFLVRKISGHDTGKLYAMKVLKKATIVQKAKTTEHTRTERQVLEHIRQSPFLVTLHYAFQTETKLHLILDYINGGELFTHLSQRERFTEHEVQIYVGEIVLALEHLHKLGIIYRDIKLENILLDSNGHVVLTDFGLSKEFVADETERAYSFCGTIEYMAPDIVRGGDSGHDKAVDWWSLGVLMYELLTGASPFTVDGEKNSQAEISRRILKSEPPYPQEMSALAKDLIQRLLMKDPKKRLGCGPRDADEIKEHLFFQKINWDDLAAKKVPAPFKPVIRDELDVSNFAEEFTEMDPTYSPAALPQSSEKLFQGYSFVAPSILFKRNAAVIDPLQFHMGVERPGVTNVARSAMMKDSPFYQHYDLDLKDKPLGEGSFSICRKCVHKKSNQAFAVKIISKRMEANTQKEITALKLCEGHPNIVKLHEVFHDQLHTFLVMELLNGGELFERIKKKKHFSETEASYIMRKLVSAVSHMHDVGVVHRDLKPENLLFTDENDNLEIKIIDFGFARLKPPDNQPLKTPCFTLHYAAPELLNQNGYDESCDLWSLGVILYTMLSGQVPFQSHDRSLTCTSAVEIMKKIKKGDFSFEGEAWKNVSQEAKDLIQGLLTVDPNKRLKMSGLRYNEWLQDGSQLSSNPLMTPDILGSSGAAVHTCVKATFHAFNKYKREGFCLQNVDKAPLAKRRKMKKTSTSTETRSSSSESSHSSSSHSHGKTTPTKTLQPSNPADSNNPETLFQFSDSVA
Chain of PRKCE (human) (Q02156 whole entry, looked up): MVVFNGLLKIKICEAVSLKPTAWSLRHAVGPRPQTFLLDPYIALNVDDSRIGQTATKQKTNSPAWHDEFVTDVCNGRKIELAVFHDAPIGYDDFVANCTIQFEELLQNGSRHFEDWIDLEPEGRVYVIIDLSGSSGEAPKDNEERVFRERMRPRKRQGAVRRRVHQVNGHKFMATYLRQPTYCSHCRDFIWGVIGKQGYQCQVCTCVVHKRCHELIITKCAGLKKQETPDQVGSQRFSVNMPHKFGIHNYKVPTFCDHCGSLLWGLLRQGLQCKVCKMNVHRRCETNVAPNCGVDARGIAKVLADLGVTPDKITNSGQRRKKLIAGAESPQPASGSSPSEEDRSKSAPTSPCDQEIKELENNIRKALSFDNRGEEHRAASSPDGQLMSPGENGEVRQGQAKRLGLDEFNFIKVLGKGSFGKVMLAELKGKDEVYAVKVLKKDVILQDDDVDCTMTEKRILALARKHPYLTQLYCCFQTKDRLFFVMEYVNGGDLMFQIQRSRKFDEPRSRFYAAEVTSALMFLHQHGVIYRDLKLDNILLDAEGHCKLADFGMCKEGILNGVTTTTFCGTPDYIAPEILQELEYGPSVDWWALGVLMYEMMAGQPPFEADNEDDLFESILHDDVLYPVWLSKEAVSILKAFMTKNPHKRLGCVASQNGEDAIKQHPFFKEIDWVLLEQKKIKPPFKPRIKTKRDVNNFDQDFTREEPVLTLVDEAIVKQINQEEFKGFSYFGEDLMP
Chain of PRKCB2 (human) (P05771 whole entry, looked up): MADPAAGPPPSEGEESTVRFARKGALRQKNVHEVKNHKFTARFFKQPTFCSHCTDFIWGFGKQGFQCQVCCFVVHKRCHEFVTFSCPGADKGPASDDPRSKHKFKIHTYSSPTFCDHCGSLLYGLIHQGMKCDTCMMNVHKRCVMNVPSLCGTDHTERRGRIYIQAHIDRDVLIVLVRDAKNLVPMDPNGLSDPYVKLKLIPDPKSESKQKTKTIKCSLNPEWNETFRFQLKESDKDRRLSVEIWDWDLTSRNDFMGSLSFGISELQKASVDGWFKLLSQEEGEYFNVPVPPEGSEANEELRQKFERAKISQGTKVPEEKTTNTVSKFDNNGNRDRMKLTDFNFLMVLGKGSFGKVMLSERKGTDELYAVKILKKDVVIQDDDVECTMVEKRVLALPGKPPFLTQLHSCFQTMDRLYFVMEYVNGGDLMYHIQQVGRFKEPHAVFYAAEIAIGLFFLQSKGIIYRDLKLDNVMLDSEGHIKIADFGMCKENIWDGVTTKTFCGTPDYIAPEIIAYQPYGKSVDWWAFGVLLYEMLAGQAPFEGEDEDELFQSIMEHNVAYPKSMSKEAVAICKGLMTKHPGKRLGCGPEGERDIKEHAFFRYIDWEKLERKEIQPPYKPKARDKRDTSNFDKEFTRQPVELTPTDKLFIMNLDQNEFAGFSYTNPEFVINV
Chain of AKT1 (human) (P31749 whole entry, looked up): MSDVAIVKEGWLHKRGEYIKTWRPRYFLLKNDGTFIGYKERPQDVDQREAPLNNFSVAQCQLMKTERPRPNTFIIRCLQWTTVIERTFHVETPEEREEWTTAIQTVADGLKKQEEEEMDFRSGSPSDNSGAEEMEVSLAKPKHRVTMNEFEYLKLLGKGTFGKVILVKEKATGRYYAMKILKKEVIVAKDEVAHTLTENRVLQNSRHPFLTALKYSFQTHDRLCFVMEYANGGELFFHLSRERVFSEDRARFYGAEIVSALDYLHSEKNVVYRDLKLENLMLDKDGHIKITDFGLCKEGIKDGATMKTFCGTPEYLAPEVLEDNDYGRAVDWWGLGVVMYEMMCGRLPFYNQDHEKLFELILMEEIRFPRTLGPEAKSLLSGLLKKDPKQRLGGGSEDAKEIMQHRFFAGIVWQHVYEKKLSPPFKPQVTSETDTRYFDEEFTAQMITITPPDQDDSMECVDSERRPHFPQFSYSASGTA

Cn1cc(-c2cnc3ccc4ccc(CS(=O)(=O)NCC5CCCCN5)cc4c(=O)c3c2)cn1 (stereo unspecified)
inhibition ([1]; compound 0.1 µM): 1.9% | inhibition ([1]; compound 1.0 µM): 1.4% | inhibition ([2]; compound 0.1 µM): 32% | inhibition ([2]; compound 1.0 µM): 15.1% | inhibition ([3]; compound 0.1 µM): -1.4% | inhibition ([4]; compound 0.1 µM): 12.6% | inhibition ([4]; compound 1.0 µM): 5.2% | inhibition ([5]; compound 0.1 µM): 1.4% | inhibition ([6]; compound 0.1 µM): -4.8% | inhibition ([7]; compound 0.1 µM): -7.4% | inhibition ([8]; compound 0.1 µM): -0.3% | inhibition ([9]; compound 0.1 µM): -9% | inhibition ([9]; compound 1.0 µM): -11.8% | inhibition ([10]; compound 0.1 µM): -1.6% | inhibition ([10]; compound 1.0 µM): -5.3% | inhibition ([11]; compound 0.1 µM): -2.7% | inhibition ([12]; compound 1.0 µM): 65% | inhibition ([13]; compound 0.1 µM): 6.2% | inhibition ([13]; compound 1.0 µM): 2.7% | inhibition ([14]; compound 0.1 µM): -8.7% | inhibition ([15]; compound 0.1 µM): -3.8% and -2.5% | inhibition ([15]; compound 1.0 µM): -2.7% | inhibition ([16]; compound 0.1 µM): 34.7% | inhibition ([17]; compound 0.1 µM): 4.37% | inhibition ([17]; compound 1.0 µM): 15.1% | inhibition ([18]; compound 0.1 µM): 20.9% | inhibition ([19]; compound 0.1 µM): 14.5% | inhibition ([19]; compound 1.0 µM): 26.8% | inhibition ([20]; compound 0.1 µM): -1.9% | inhibition ([20]; compound 1.0 µM): -4.2% | inhibition ([21]; compound 0.1 µM): 17.5% | inhibition ([22]; compound 0.1 µM): 0.7% | inhibition ([22]; compound 1.0 µM): -0.4% | inhibition ([23]; compound 0.1 µM): -9.1% | inhibition ([23]; compound 1.0 µM): -5.1% | inhibition ([24]; compound 0.1 µM): 7.6% | inhibition ([24]; compound 1.0 µM): 1.3% | inhibition ([25]; compound 0.1 µM): 3.1% | inhibition ([25]; compound 1.0 µM): 1.4% | inhibition ([26]; compound 0.1 µM): 0.7% | inhibition ([27]; compound 0.1 µM): -11.5% | inhibition ([27]; compound 1.0 µM): -4.4% | inhibition ([28]; compound 0.1 µM): 1.2% | inhibition ([29]; compound 0.1 µM): 17.3% | inhibition ([29]; compound 1.0 µM): 9.6% | inhibition ([30]; compound 0.1 µM): -4.3% | inhibition ([30]; compound 1.0 µM): -2.5% | inhibition ([31]; compound 0.1 µM): -4.9% | inhibition ([32]; compound 0.1 µM): 3% | inhibition ([33]; compound 0.1 µM): 0.2% | inhibition ([33]; compound 1.0 µM): -6% | inhibition ([34]; compound 0.1 µM): -0.1% | inhibition ([34]; compound 1.0 µM): -2.7%

O=C(CCc1ccc2ccc3ncc(C4CCNCC4)cc3c(=O)c2c1)NCc1ccccn1
inhibition ([1]; compound 0.1 µM): -10% | inhibition ([1]; compound 1.0 µM): -6.6% | inhibition ([2]; compound 0.1 µM): -22.5% | inhibition ([2]; compound 1.0 µM): -4.6% | inhibition ([3]; compound 0.1 µM): 0.6% | inhibition ([3]; compound 1.0 µM): -1% | inhibition ([4]; compound 0.1 µM): -7.2% | inhibition ([4]; compound 1.0 µM): 1.7% | inhibition ([5]; compound 0.1 µM): -1.7% | inhibition ([5]; compound 1.0 µM): 8.1% | inhibition ([6]; compound 0.1 µM): -5.8% | inhibition ([6]; compound 1.0 µM): 9.3% | inhibition ([7]; compound 0.1 µM): -3.5% | inhibition ([7]; compound 1.0 µM): -2.8% | inhibition ([8]; compound 0.1 µM): -1% | inhibition ([8]; compound 1.0 µM): 3.4% | inhibition ([9]; compound 0.1 µM): -1.4% | inhibition ([9]; compound 1.0 µM): -7.4% | inhibition ([10]; compound 0.1 µM): -4.2% | inhibition ([10]; compound 1.0 µM): -2.5% | inhibition ([11]; compound 0.1 µM): 5.4% | inhibition ([11]; compound 1.0 µM): -1.6% | inhibition ([12]; compound 0.1 µM): 2.1% | inhibition ([12]; compound 1.0 µM): 1.1% | inhibition ([13]; compound 0.1 µM): 10.9% | inhibition ([13]; compound 1.0 µM): -15% | inhibition ([14]; compound 0.1 µM): -3% | inhibition ([14]; compound 1.0 µM): -3.3% | inhibition ([15]; compound 0.1 µM): -5% and 4.5% | inhibition ([15]; compound 1.0 µM): -1.6% and 0.1% | inhibition ([16]; compound 0.1 µM): 8% | inhibition ([16]; compound 1.0 µM): 27.6% | inhibition ([17]; compound 0.1 µM): -4.2% | inhibition ([17]; compound 1.0 µM): 2.7% | inhibition ([18]; compound 0.1 µM): 7.5% | inhibition ([18]; compound 1.0 µM): 18.6% | inhibition ([19]; compound 0.1 µM): 3.7% | inhibition ([19]; compound 1.0 µM): 22.4% | inhibition ([20]; compound 0.1 µM): -1.7% | inhibition ([20]; compound 1.0 µM): -3.4% | inhibition ([21]; compound 0.1 µM): 1.5% | inhibition ([21]; compound 1.0 µM): 3.9% | inhibition ([22]; compound 0.1 µM): -5.3% | inhibition ([22]; compound 1.0 µM): -0.9% | inhibition ([23]; compound 0.1 µM): 9.3% | inhibition ([23]; compound 1.0 µM): -0.4% | inhibition ([24]; compound 0.1 µM): -1.1% | inhibition ([24]; compound 1.0 µM): 0.8% | inhibition ([25]; compound 0.1 µM): 7.2% | inhibition ([25]; compound 1.0 µM): -8.7% | inhibition ([26]; compound 0.1 µM): -2.3% | inhibition ([26]; compound 1.0 µM): 1.3% | inhibition ([27]; compound 0.1 µM): -21.2% | inhibition ([27]; compound 1.0 µM): 2.2% | inhibition ([28]; compound 0.1 µM): -14.2% | inhibition ([28]; compound 1.0 µM): 0.5% | inhibition ([29]; compound 0.1 µM): 3.5% | inhibition ([29]; compound 1.0 µM): -3.2% | inhibition ([30]; compound 0.1 µM): 3.3% | inhibition ([30]; compound 1.0 µM): -13.3% | inhibition ([31]; compound 0.1 µM): -1.8% | inhibition ([31]; compound 1.0 µM): 3.9% | inhibition ([32]; compound 0.1 µM): 1.4% | inhibition ([32]; compound 1.0 µM): 7.8% | inhibition ([33]; compound 0.1 µM): 0.7% | inhibition ([33]; compound 1.0 µM): 62.5% | inhibition ([34]; compound 0.1 µM): 1.9% | inhibition ([34]; compound 1.0 µM): 4.5%
